Results published in ChEMBL document CHEMBL3872258, “Challenges in the development of an M4 PAM in vivo tool compound: The discovery of VU0467154 and unexpected DMPK profiles of close analogs” (Bioorg Med Chem Lett, 2017).

Experiments:
[1] = biological target: T1, Muscarinic acetylcholine receptor M4 (Rattus norvegicus) (UniProt P08485); assay: Positive allosteric modulation of rat M4 receptor expressed in CHO cells co-expressing Gqui5 by calcium mobilization assay relative to acetylcholine; format: functional, cell-based
T1 sequence (whole entry): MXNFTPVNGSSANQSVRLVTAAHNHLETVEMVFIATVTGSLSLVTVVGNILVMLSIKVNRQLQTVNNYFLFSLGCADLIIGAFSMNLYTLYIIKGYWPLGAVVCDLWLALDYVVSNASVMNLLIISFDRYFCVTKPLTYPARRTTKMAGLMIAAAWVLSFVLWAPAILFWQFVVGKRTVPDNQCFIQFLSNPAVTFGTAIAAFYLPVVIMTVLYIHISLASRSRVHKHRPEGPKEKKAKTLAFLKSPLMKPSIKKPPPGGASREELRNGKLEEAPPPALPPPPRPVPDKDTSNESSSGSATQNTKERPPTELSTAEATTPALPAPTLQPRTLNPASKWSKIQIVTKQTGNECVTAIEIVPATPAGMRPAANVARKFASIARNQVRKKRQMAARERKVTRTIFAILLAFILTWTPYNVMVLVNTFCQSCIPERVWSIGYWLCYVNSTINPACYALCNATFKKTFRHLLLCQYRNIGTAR

[2] = Half life in Sprague-Dawley rat at 1 mg/kg, iv; format: ADME, organism-based; details: in vivo; for half-life: Sprague-Dawley
[3] = Unbound fraction in rat plasma; format: ADME, cell-free
[4] = Ratio of unbound concentration in brain to plasma in Sprague-Dawley rat at 1 mg/kg, ip at 0.25 hrs; format: ADME, organism-based
[5] = Unbound fraction in rat brain; format: ADME, tissue-based; details: for fraction unbound: brain
Cytochrome P450 3A4 = Cytochrome P450 3A4 (Homo sapiens, UniProt P08684); assay: Inhibition of CYP3A4 (unknown origin); format: ADME
[6] = Unbound fraction in human plasma; format: ADME, cell-free
[7] = biological target: T2, Muscarinic acetylcholine receptor M5 (Rattus norvegicus, UniProt P08911); assay: Binding affinity to rat M5 receptor by radio-ligand binding assay
T2 sequence (P08911 whole entry): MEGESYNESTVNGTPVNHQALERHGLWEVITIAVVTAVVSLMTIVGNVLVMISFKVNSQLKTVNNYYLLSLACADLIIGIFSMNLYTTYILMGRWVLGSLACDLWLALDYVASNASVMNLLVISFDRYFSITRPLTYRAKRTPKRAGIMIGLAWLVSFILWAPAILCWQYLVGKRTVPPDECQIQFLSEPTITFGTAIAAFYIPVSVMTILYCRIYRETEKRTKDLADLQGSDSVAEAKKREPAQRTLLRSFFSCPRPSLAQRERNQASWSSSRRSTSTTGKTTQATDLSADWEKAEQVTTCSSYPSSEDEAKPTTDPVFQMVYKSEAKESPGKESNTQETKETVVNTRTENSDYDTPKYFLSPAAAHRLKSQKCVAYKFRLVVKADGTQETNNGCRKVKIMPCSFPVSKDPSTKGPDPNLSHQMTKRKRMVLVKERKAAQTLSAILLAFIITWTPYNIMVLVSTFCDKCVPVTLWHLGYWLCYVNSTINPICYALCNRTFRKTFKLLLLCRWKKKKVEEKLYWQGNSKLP

[8] = biological target: T3, Muscarinic acetylcholine receptor M2 (Rattus norvegicus, UniProt P10980); assay: Binding affinity to rat M2 receptor by radio-ligand binding assay
T3 sequence (P10980 whole entry): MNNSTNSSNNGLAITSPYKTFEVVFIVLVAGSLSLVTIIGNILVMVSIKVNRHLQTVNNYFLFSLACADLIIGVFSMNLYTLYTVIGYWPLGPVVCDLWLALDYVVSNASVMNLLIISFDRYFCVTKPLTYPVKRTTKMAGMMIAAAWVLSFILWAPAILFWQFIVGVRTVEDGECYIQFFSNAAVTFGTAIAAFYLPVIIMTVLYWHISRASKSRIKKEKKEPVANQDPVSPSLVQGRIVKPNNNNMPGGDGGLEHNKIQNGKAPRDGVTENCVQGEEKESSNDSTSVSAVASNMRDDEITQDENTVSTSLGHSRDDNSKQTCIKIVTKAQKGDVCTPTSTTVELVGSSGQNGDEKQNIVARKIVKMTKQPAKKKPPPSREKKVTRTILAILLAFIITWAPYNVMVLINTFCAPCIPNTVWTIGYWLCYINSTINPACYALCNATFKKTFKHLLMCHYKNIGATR

[9] = biological target: Muscarinic acetylcholine receptor M3 (Homo sapiens, UniProt P20309); assay: Displacement of [3H]-N-Methylscopolamine from human M3 receptor expressed in CHOK1 cells; format: cell-based, CHO-K1
Cytochrome P450 2C9 = Cytochrome P450 2C9 (Homo sapiens, UniProt P11712); assay: Inhibition of CYP2C9 (unknown origin); format: ADME
[10] = biological target: T4, Muscarinic acetylcholine receptor M2 (Homo sapiens, UniProt P08172); assay: Displacement of [3H]-N-Methylscopolamine from human M2 receptor expressed in CHOK1 cells; format: cell-based, CHO-K1
T4 sequence (P08172 whole entry): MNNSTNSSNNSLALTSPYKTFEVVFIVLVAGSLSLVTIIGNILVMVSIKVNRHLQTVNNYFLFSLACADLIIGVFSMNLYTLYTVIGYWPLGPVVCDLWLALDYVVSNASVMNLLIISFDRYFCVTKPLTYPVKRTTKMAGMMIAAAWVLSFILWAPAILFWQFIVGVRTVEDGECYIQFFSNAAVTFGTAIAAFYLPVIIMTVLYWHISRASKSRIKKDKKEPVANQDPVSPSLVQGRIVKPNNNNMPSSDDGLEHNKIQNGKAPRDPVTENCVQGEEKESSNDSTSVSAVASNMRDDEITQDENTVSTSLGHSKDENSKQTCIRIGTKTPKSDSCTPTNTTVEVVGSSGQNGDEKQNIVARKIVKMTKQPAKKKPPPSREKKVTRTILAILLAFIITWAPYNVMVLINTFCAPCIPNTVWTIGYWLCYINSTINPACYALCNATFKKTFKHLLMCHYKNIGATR

[11] = biological target: Sodium-dependent serotonin transporter (Homo sapiens, UniProt P31645); assay: Displacement of [3H]-Paroxetine from recombinant human SERT expressed in HEK293 cells; format: cell-based
[12] = Ratio of unbound concentration in brain to plasma in Sprague-Dawley rat at 0.20 to 0.25 mg/kg, iv administered through cassette dosing after 0.25 hrs; format: ADME, organism-based

Chain of Cytochrome P450 3A4 (P08684 whole entry): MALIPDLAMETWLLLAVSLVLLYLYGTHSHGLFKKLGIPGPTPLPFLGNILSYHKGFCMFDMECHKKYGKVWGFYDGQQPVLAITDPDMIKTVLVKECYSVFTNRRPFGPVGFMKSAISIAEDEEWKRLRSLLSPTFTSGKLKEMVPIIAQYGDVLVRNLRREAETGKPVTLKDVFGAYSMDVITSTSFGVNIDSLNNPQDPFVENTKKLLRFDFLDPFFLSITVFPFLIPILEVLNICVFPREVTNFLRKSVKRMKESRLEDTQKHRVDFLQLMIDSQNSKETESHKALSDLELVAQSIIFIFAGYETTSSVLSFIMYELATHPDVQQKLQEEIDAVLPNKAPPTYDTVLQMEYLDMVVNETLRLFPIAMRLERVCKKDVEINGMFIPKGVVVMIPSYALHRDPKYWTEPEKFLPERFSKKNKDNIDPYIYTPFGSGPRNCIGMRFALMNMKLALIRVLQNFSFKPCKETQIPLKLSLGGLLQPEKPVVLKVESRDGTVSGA
Chain of Cytochrome P450 2C9 (P11712 whole entry): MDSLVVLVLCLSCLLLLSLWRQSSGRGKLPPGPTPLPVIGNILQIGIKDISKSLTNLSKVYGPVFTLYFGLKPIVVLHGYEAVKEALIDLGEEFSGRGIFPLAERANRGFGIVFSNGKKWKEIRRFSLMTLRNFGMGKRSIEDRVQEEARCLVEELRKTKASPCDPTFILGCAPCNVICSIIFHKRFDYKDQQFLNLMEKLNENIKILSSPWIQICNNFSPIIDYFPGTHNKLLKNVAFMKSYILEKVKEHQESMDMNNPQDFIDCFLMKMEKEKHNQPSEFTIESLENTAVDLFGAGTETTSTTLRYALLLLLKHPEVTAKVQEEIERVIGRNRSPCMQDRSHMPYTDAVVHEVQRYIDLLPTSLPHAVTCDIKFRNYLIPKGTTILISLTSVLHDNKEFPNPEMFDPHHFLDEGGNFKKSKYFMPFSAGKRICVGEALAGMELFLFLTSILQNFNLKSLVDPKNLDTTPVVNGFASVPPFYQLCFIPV
Chain of Muscarinic acetylcholine receptor M3 (P20309 whole entry): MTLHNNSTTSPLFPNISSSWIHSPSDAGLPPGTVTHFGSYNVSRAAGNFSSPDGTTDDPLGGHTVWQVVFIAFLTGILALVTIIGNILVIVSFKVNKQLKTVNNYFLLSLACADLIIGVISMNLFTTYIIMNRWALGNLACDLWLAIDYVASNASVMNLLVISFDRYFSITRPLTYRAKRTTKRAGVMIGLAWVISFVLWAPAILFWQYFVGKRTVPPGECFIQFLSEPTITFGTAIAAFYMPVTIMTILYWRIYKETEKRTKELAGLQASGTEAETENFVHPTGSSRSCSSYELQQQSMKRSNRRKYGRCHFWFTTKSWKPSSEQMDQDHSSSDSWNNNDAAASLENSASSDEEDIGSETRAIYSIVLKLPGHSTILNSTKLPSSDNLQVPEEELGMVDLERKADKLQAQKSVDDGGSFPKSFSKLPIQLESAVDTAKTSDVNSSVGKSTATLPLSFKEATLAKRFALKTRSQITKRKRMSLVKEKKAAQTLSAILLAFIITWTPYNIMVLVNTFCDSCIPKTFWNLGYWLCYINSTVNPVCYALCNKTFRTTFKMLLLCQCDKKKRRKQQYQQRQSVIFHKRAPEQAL
Chain of Sodium-dependent serotonin transporter (P31645 whole entry): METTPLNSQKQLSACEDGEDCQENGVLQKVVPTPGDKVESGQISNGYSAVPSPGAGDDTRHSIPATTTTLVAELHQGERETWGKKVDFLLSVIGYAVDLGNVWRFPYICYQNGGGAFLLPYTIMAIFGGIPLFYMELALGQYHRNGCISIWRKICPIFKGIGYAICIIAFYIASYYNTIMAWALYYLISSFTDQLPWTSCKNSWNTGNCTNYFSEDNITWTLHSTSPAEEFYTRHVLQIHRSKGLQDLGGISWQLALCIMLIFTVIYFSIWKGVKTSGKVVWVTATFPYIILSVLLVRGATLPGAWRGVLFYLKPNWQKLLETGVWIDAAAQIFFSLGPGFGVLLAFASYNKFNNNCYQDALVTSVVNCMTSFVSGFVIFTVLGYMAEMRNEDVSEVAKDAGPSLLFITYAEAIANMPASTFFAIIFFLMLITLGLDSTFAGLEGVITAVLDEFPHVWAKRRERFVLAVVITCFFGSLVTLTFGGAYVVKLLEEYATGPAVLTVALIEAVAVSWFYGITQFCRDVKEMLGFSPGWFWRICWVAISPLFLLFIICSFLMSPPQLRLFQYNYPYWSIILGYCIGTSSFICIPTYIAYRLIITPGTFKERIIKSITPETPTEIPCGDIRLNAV

Row | SMILES | Emax [1] [%] | t1/2 [2] [h] | fraction unbound [3] | K(p,uu,brain) [4] | Fu [5] | IC50 (Cytochrome P450 3A4) [µM] | Fu [6] | EC50 [7] [µM] | EC50 [8] [µM] | EC50 [9] [µM] | IC50 (Cytochrome P450 2C9) [µM] | EC50 [10] [µM] | IC50 [11] [µM] | half-life [2] [h] | K(p,uu,brain) [12] | fraction unbound [5] | Fu [3]
1 | Cc1nnc2sc(C(=O)NCc3ccc(S(=O)(=O)C(F)(F)F)cc3)c(N)c2c1C | 68.1 | 5.7 | 0.031 | 1.1 | 0.067 | > 30 | 0.019 | > 30 | > 30 | > 30 | > 30 | > 30 | – | – | – | – | –
2 | Cc1nnc2sc(C(=O)NCc3ccc(S(F)(F)(F)(F)F)cc3)c(N)c2c1C | 75.7 | – | – | 0.75 | – | > 30 | 0.01 | > 30 | > 30 | > 30 | > 30 | > 30 | 0.52 | 3.6 | 1 | 0.004 | –
3 | Cc1nnc2sc(C(=O)NCc3ccc(S(=O)(=O)C(F)F)cc3)c(N)c2c1C | 65.2 | – | – | 0.1 | – | > 30 | 0.053 | > 30 | > 30 | > 30 | > 30 | > 30 | 0.6 | 2.4 | 0.1 | 0.062 | 0.066
